Test results taken from paper PMC3645732, “A Differential Redox Regulation of the Pathways Metabolizing Glyceraldehyde-3-Phosphate Tunes the Production of Reducing Power in the Cytosol of Plant Cells” (International Journal of Molecular Sciences, 2013).

What was measured:
[1] = biological target: T1, np-Ga3PDHase (non-phosphorylating NADP+-dependent glyceraldehyde-3-phosphate dehydrogenase, EC 1.2.1.9) (Triticum aestivum, UniProt Q8LK61); assay: Kd from protection against H2O2 inactivation of purified enzyme (Mildvan and Leigh plot); format: biochemical
T1 construct: gene GAPN; recombinant wheat enzyme (NCBI DQ268762), pRSETB/TagapN, E. coli
T1 sequence (Q8LK61 1-496): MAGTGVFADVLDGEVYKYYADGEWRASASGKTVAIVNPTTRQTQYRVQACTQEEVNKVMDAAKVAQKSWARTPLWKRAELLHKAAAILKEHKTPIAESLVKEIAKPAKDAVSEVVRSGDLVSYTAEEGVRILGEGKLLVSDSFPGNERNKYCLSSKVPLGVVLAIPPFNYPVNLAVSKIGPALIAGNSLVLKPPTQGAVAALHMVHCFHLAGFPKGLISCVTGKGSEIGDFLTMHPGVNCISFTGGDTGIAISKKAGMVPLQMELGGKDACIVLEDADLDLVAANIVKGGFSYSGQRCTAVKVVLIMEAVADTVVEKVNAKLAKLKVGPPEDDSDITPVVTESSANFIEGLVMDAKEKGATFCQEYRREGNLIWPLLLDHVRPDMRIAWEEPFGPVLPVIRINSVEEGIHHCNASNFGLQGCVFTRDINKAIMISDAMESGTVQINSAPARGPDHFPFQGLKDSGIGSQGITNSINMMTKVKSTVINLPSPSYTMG

[2] = biological target: T2, Ga3PDHase (phosphorylating NAD+-dependent glyceraldehyde-3-phosphate dehydrogenase, EC 1.2.1.12) (Triticum aestivum, UniProt A5YVV3); assay: Kd from protection against H2O2 inactivation in presence of NAD+ (Mildvan and Leigh plot); S0.[…] by enzyme kinetics; format: biochemical
T2 construct: gene GAPC; recombinant wheat gapC (NCBI EF592180), homotetramer, E. coli
T2 sequence (A5YVV3 1-337): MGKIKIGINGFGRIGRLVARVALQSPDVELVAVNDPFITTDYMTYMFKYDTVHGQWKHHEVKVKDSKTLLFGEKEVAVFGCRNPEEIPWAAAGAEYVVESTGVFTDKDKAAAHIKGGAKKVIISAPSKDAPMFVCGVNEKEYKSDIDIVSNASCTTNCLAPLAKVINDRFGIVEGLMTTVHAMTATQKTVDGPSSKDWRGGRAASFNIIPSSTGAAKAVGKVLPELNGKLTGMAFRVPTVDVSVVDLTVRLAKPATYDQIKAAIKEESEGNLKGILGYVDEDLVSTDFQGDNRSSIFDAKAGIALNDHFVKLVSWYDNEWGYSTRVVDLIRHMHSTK

Structure (SMILES) | Kd [1] [µM] | Kd [2] [µM]
NC(=O)c1ccc[n+]([C@@H]2O[C@H](COP(=O)([O-])OP(=O)(O)OC[C@H]3O[C@@H](n4cnc5c(N)ncnc54)[C@H](OP(=O)(O)O)[C@@H]3O)[C@@H](O)[C@H]2O)c1 [NADP^+] | 2.5 | –
O=C[C@H](O)COP(=O)(O)O [glyceraldehyde-3-phosphate] | – | 115
